Experimental data: paper doi:10.1101/2025.08.06.668955, “High-Affinity, Structure-Validated and Selective Macrocyclic Peptide Tools for Chemical Biology Studies of Huntingtin” (bioRxiv, 2025)
Where a SMILES comes first, the peptide text is derived from it. Bridges are numbered along the chain shown (N, C = ends).

Tests used:
HTTQ23-HAP40 = target: T1, HTTQ23-HAP40 (Homo sapiens, UniProt P23610+P42858, INS38QQ); assay: Thermal shift assay (DSF), HTTQ23-HAP40; assay type: binding; conditions: SYPRO Orange, 0.25 mg/mL protein, macrocycle up to 10 μM, 2.5% DMSO, n=3
T1 construct: Full-length wildtype HTT with a polyQ tract of 23 glutamines; FLAG; made in house; host or cells: Sf9 insect cells (baculovirus)
T1 sequence (P42858 with tags, fused parts or gaps INS38QQ): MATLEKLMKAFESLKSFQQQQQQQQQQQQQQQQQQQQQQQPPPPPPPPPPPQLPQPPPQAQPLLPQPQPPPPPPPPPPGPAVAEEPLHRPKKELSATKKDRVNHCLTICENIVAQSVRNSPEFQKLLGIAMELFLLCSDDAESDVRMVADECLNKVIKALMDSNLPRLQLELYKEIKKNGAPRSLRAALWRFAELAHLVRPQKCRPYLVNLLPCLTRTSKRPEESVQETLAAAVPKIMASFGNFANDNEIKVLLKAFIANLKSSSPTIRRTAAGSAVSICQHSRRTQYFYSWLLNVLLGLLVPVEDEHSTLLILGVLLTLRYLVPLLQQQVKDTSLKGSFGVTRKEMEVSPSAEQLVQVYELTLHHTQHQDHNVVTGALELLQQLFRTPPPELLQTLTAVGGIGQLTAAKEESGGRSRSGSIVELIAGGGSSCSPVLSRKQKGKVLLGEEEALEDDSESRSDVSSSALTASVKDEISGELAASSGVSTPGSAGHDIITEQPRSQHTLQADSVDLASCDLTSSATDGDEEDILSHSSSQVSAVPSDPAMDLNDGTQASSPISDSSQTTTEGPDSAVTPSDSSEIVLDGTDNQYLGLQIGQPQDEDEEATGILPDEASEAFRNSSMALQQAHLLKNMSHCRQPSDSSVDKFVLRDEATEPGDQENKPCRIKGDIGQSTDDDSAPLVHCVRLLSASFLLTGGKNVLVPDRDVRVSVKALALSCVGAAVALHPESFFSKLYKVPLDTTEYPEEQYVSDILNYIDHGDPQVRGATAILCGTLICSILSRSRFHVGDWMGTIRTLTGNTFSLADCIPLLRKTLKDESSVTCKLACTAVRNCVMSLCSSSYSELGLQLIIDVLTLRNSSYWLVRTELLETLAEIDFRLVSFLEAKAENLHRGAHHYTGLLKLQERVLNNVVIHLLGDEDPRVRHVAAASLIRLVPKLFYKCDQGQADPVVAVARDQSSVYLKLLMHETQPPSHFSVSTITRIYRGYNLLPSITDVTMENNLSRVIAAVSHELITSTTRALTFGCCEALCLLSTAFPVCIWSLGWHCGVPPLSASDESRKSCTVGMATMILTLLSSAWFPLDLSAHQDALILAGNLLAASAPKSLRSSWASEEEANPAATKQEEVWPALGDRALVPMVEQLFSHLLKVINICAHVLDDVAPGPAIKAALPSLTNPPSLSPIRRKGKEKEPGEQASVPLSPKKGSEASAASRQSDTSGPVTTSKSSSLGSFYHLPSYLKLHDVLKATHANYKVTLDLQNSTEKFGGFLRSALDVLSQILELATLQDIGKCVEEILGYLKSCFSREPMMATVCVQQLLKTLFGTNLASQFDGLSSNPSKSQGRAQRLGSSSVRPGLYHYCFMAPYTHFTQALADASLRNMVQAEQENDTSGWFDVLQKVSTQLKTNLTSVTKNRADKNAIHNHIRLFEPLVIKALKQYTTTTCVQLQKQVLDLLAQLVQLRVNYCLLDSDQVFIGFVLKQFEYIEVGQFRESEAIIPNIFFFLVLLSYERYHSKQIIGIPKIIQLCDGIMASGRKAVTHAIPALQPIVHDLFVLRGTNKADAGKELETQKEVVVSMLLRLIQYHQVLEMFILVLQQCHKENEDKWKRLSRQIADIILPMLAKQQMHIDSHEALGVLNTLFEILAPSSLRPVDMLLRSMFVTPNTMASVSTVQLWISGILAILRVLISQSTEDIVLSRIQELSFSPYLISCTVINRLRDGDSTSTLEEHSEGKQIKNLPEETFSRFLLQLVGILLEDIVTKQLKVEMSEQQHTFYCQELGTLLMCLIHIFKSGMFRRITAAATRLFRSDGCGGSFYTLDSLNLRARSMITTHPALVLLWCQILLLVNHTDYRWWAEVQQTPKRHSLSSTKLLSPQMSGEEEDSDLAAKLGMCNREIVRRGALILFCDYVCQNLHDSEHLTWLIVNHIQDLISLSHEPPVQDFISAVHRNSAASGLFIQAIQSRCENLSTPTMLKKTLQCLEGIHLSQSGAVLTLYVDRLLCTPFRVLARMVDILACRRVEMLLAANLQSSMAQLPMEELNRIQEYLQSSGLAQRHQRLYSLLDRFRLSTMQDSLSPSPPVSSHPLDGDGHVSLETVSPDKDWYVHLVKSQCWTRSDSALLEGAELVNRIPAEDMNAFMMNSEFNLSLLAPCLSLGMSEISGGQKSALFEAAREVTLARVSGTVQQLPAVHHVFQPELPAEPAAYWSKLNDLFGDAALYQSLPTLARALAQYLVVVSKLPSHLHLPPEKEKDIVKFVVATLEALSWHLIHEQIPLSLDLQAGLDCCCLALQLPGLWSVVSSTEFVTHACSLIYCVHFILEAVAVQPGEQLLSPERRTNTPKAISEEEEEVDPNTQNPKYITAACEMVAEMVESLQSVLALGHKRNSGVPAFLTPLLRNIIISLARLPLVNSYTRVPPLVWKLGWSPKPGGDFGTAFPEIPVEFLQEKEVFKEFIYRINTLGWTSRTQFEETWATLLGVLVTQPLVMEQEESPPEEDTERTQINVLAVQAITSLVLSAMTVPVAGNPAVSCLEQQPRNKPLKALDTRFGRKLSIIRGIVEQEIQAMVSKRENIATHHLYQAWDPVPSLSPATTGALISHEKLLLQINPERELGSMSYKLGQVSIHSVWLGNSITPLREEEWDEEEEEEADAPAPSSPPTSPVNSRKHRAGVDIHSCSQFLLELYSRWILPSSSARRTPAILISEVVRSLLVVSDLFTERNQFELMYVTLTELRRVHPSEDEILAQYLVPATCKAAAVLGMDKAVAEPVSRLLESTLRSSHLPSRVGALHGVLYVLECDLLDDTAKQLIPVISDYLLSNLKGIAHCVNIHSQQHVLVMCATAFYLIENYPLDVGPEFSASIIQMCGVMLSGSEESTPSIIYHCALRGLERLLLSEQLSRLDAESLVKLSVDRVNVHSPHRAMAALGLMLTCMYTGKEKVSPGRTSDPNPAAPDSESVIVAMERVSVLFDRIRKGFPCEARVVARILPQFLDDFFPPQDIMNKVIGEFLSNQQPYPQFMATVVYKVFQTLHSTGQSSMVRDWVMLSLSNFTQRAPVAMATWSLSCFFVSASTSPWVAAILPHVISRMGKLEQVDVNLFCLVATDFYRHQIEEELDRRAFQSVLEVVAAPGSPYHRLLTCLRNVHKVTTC
T1 sequence (P23610 whole entry, stated change not applied): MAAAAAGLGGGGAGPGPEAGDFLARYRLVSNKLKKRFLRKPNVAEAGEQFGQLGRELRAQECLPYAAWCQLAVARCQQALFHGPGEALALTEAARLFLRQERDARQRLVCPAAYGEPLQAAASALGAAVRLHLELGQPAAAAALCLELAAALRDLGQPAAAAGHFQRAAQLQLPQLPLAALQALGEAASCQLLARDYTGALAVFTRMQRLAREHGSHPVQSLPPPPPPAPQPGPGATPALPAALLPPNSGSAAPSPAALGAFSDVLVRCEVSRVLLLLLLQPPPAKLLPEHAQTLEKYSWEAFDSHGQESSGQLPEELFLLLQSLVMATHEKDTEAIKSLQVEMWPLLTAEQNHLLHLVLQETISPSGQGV
Method: In an Axygen® 384-well PCR microplate (REF# PCR-384-LC480-W-NF, Corning), samples were mixed to yield a final concentration of 0.25 mg/mL Q54 or Q23/HAP40, a 5-pt 2-fold serial dilution of each macrocycle (top concentration of 10 μM, 2.5% DMSO), and 5X SYPRO™ Orange (CAT# S6650, Thermo Fisher Scientific) in buffer (20 mM HEPES pH 7.4, 150 mM NaCl, 1 mM TCEP, 0.005% Tween-20). Differential Scanning Fluorimetry (DSF) was performed using a LightCycler® 480 (Roche LifeSciences) set to a 4 °C/min temperature ramp (20–95 °C) and fluorescence detection at 580 nm. Melting temperatures (Tm) were obtained from the minima of the negative derivative of each curve. The propagated error of the thermal shift (ΔTm) was calculated from the standard deviation of each Tm mean (n=3). To ensure a maximally macrocycle-bound fraction (KD ~10 nM; ~100% bound) at 0.25 mg/mL HTT or HTT-HAP40 (~0.7 μM), the upper limit of macrocycle tested was 10 μM.
98 Supplementary Figure. 10. Thermal shift (ΔTm) induced by macrocycle binding. Melting
99 temperature of HTTQ54 (left) with HL5 or HL2 minus HTTQ54 with DMSO (46.5 °C), and (right)
100 HTTQ23-HAP40 with HD4, HL2, HL5, HHD2, HHD3, or HHL1 minus HTTQ23-HAP40 with DMSO
101 (51.0 °C). ΔTm significance was determined using an unpaired t-test with Welch correction,
102 comparing to the mean Tm of Q54 or Q23-HAP40 with DMSO; *P < 0.05, **P < 0.01, ***P <
103 0.001. The summary table reports the ΔTm and exact P value at the highest concentration tested
(1 picture or pasted object on this page, not shown here)

HAP40 = assay: Macrocycle precipitation (MP), co-purification of HAP40, LC-MS/MS; assay type: binding, human; conditions: HEK293T lysate versus HTT CRISPR knockout line

CC(C)C[C@@H]1NC(=O)[C@H](Cc2ccc(O)cc2)NC(=O)[C@H](CCCNC(=N)N)NC(=O)[C@H](C)NC(=O)[C@H]([C@@H](C)O)NC(=O)[C@H](Cc2ccc(O)cc2)NC(=O)CSC[C@@H](C(N)=O)NC(=O)[C@H](CCCCN)NC(=O)[C@H](Cc2ccc(O)cc2)NC(=O)[C@H](Cc2c[nH]cn2)NC(=O)[C@H](CC(C)C)NC(=O)[C@H]([C@@H](C)O)NC(=O)CNC(=O)[C@H](CC(C)C)NC(=O)[C@H]([C@@H](C)O)NC1=O [HL2] ({CH2CO}-YTARYLTLGTLHYKC-NH2; thioether N-15; C-terminus assumed)
Thermal shift (ΔTm) of HTTQ23-HAP40 induced by macrocycle (HTTQ23-HAP40): No significant thermal effects | Enrichment of HAP40 in macrocycle pulldowns (HAP40): consistently enriched
